Measurements taken from US20090054403A1, “Treatment of Post-Traumatic Stress Disorder” (priority 2007, published 2009).

Tested on: tissue noradrenaline and dopamine content
Test: Tissue catecholamines in SHR after three oral doses 12 h apart
Format: in vivo, spontaneously hypertensive rats (SHR)
Procedure: The activity of nepicastat at twelve selected enzymes and receptors was determined using established assays. Details of individual receptor radioligand binding assays can be found in Wong et al (1993). Binding data were analyzed by iterative curve-fitting to a four parameter logistic equation. Ki values were calculated from IC50 values using the Cheng-Prusoff equation. Enzyme inhibitory activity was expressed as IC50 (concentration required to produce 50% inhibition of enzyme activity). Male SHRs (15-16 weeks old, Charles River, Wilmington, Mass., USA) were used in the study. On the day of the study, animals were weighed and randomly assigned to be dosed with either vehicle (control) or the appropriate dose of nepicastat (3, 10, 30 or 100 mg.kg^−1, po) or (R)-5-Aminomethyl-1-(5,7-difluoro-1,2,3,4-tetrahydronaphth-2-yl)-2,3-dihydro-2-thioxo-1H-imidazole hydrochloride (30 mg.kg^−1, po) three consecutive times, twelve hours apart. At six hours after the third dose, the rats were anaesthetized with halothane, decapitated and tissues (cerebral cortex, mesenteric artery and left ventricle) were rapidly harvested, weighed, placed in iced perchloric acid (0.4 M), frozen in liquid nitrogen and stored at −70° C. until subsequent analysis. To quantify noradrenaline and dopamine concentrations, tissues were homogenized by brief sonication and centrifuged at 13,000 rpm for 30 minutes at 4° C. The supernatant, spiked with 3,4-dihydroxybenzylamine (internal standard), was assayed for noradrenaline and dopamine by HPLC using electrochemical detection.
In vivo biochemical studies in spontaneously hypertensive rats (SHR) and normal dogs. Mate SHR (15-16 week old, Charles River, Wilmington, Mass.) were used in the study. On the day of the study, the animals were weighed and randomly assigned to receive either placebo (vehicle) or the appropriate dose of 2a, 2b or 1. Each rat was dosed orally three times, 12 h apart, beginning in the morning. At 6 h after the third dose, the rats were anesthetized with halothane, decapitated, and the tissues (cerebral cortex, mesenteric artery and left ventricle) were rapidly harvested, weighed, placed in iced 0.4 M perchloric acid, frozen in liquid nitrogen and stored at −70° C. until analysis. Tissue NE and DA concentrations were assayed by HPLC using electrochemical detection.
Fifteen to sixteen week old male spontaneously hypertensive rats (SHR) (Charles River Labs) were allowed food and water ad libitum. Animals were weighed and randomly assigned to one of the following treatment groups: 1) distilled water vehicle (dH2O), or nepicastat at 3, 10, 30, and 100 mg/kg, 2) (R)-5-Aminomethyl-1-(5,7-difluoro-1,2,3,4-tetrahydronaphth-2-yl)-2,3-dihydro-2-thioxo-1H-imidazole hydrochloride at 30 mg/kg in distilled water, or 3) PEG 400:dH2O vehicle or RS-2643 1-000 at 30 mg/kg. Each rat was dosed orally (p.o., using a gavage needle) three times 12 hours apart, beginning in the morning. At six hours after the third dose rats were anesthetized with halothane, decapitated, and the cortex, mesenteric artery, and left ventricle were rapidly harvested, weighed, placed in iced 0.4 M perchioric acid, frozen in liquid nitrogen, and stored at −70° C. Tissue dopamine and norepinephrine concentrations were assayed by high performance liquid chromatography and electrochemical detection.
Four series of statistical analyses were performed. The first series compared the rats treated with various doses of nepicastat, and (R)-5-Aminomethyl-1-(5,7-difluoro-1,2,3,4-tetrahydronaphth-2-yl)-2,3-dihydro-2-thioxo-1H-imidazole hydrochloride at 30 mg/kg to the vehicle control animals. A nonparametric one-way analysis of variance (ANOVA) with factor Dose and blocking factor Day was performed for each tissue and strain separately. Overall results are reported. Pairwise analysis between treated and controls at each dose were carried out using Dunnett's test to control the experiment-wise error rate. […]

[1] = 100 mg/kg po x3, 6 h after third dose
[2] = conclusion over rat dose-response studies
[3] = doses of 3, 10, 30 and 100 mg/kg

Cl.NCc1c[nH]c(=S)n1[C@@H]1CCc2c(F)cc(F)cc2C1 [R-enantiomer, (R)-5-Aminomethyl-1-(5,7-difluoro-1,2,3,4-tetrahydronaphth-2-yl)-2,3-dihydro-2-thioxo-1H-imidazole hydrochloride]
dopamine vs vehicle, cerebral cortex (30 mg/kg po x3): significant increase
dopamine vs vehicle, left ventricle (30 mg/kg po x3): significant increase
dopamine vs vehicle, mesenteric artery (30 mg/kg po x3): significant increase
dopamine/norepinephrine ratio vs vehicle, cerebral cortex (30 mg/kg po x3): no effect
dopamine/norepinephrine ratio vs vehicle, left ventricle (30 mg/kg po x3): significant increase
dopamine/norepinephrine ratio vs vehicle, mesenteric artery (30 mg/kg po x3): significant increase
increase in DA/NE ratio, cerebral cortex (30 mg/kg po x3): 1.1 fold
increase in DA/NE ratio, left ventricle (30 mg/kg po x3): 3.5 fold
increase in DA/NE ratio, mesenteric artery (30 mg/kg po x3): 2.6 fold
norepinephrine vs vehicle, cerebral cortex (30 mg/kg po x3): significant increase
norepinephrine vs vehicle, left ventricle (30 mg/kg po x3): did not significantly lower
norepinephrine vs vehicle, mesenteric artery (30 mg/kg po x3): did not significantly lower

Cl.NCc1c[nH]c(=S)n1[C@H]1CCc2c(F)cc(F)cc2C1 [nepicastat, (S)-5-Aminomethyl-1-(5,7-difluoro-1,2,3,4-tetrahydronaphth-2-yl)-2,3-dihydro-2-thioxo-1H-imidazole hydrochloride]
increase in DA/NE ratio, cerebral cortex (30 mg/kg po x3): 1.5 fold
increase in DA/NE ratio, left ventricle (30 mg/kg po x3): 7.5 fold
increase in DA/NE ratio, mesenteric artery (30 mg/kg po x3): 8.3 fold
maximal increase in DA/NE ratio, artery (mesenteric) (100 mg/kg po x3): 14 fold
maximal increase in DA/NE ratio, cerebral cortex (100 mg/kg po x3): 3.2 fold
maximal increase in DA/NE ratio, left ventricle (100 mg/kg po x3): 11 fold
decrease in noradrenaline, cerebral cortex [1]: 42%
decrease in noradrenaline, left ventricle [1]: 35%
decrease in noradrenaline, mesenteric artery [1]: 47%
increase in dopamine, cerebral cortex [1]: 86%
increase in dopamine, left ventricle [1]: 800%
increase in dopamine, mesenteric artery [1]: 820%
norepinephrine concentration vs vehicle, mesenteric artery (10, 30 and 100 mg/kg): not significantly less (p>0.05) than vehicle
dopamine/norepinephrine ratio vs vehicle, mesenteric artery (all doses (3-100 mg/kg)): significantly (p<0.05) greater than vehicle
in vivo potency compared with the R enantiomer (all three tissues at 30 mg/kg): more potent than the R enantiomer
dose inhibiting DBH in the cerebral cortex of rats [2]: 60 to 100 mg/kg/day
dose inhibiting DBH in the left ventricle and mesenteric artery of rats [2]: 1 to 6 mg/kg/day
dopamine concentration vs vehicle, left ventricle [3]: significantly (p<0.05) greater than vehicle
dopamine concentration vs vehicle, mesenteric artery [3]: significantly (p<0.05) greater than vehicle
dopamine/norepinephrine ratio vs vehicle, left ventricle [3]: significantly (p<0.05) greater than vehicle
norepinephrine concentration vs vehicle, left ventricle (doses of 10, 30 and 100 mg/kg): significantly (p<0.05) lower than vehicle
dopamine concentration vs vehicle, cerebral cortex (doses of 30 and 100 mg/kg): significantly (p<0.05) greater
dopamine/norepinephrine ratio vs vehicle, cerebral cortex (doses of 30 and 100 mg/kg): significantly (p<0.05) greater
norepinephrine concentration vs vehicle, cerebral cortex (doses of 30 and 100 mg/kg): significantly (p<0.05) lower
doses at which catecholamine changes attained statistical significance (p<0.05) (mesenteric artery and left ventricle): > 3 mg/kg
in vivo effectiveness compared with SKF 102698 (three doses at 30 mg/kg over 24 hours): more effective than SKF 102698 in the mesenteric artery and left ventricle, but less effective in the cerebral cortex

Fc1cc(F)cc(Cn2cc[nH]c2=S)c1 [SKF 102698, reference compound]
dopamine vs vehicle, cerebral cortex (30 mg/kg po x3): significantly greater (p<0.01) than vehicle
dopamine vs vehicle, left ventricle (30 mg/kg po x3): significantly greater (p<0.01) than vehicle
dopamine vs vehicle, mesenteric artery (30 mg/kg po x3): significantly greater than vehicle
dopamine/norepinephrine ratio vs vehicle, cerebral cortex (30 mg/kg po x3): significantly (p<0.01) greater than vehicle
dopamine/norepinephrine ratio vs vehicle, left ventricle (30 mg/kg po x3): significantly (p<0.05) greater than vehicle
dopamine/norepinephrine ratio vs vehicle, mesenteric artery (30 mg/kg po x3): significantly greater than vehicle
increase in DA/NE ratio, cerebral cortex (30 mg/kg po x3): 2.7 fold
increase in DA/NE ratio, left ventricle (30 mg/kg po x3): 3.5 fold
increase in DA/NE ratio, mesenteric artery (30 mg/kg po x3): 5.5 fold
norepinephrine vs vehicle, cerebral cortex (30 mg/kg po x3): significantly lower than vehicle
norepinephrine vs vehicle, left ventricle (30 mg/kg po x3): not different from vehicle
norepinephrine vs vehicle, mesenteric artery (30 mg/kg po x3): significantly lower than vehicle
